Results on three compounds are retold here after US20210261621A1, “Preparation of Dilipid Polymixins and Use Thereof as Antimicrobial Adjuvants” (priority 2018, published 2021).

≈ marks a conversion by molar mass, not a printed value. Where two headings read alike, the source gives them in different places. Positions of bridges follow the written chain, without caps; N, C: chain ends. Non-standard residues stand in square brackets, D forms with d. Residues, ends and D or L forms follow the SMILES beside them. Dab = NCC[C@H](N)C(=O)O

For series [1], the system named is P. aeruginosa PAO1. Format: cell-based, Pseudomonas aeruginosa. The following applies: P. aeruginosa PAO1 (wild type). The source says: (§1) Bacterial strains were either obtained from the American Type Culture Collection (ATCC), Canadian National Intensive Care Unit (CAN-ICU) surveillance study or the Canadian Ward Surveillance (CANWARD) study. Strains from both CAN-ICU and CANWARD are isolates recovered from patients diagnosed with a presumed infectious disease that were admitted in a participating medical center across Canada. Efflux-deficient strain PAO200 (lacking MexAB-OprM efflux system) and PA0750 (lacking MexAB-OprM, MexCD-OprJ, MexEF-OprN, MexJK and MexXY efflux systems, and the outer membrane protein OpmH) were kindly gifted by Dr. Ayush Kumar (University of Manitoba).
(§2) The in vitro antibacterial activity of the compounds studied were assessed by broth microdilution susceptibility testing following CLSI guidelines. Bacterial cultures were grown overnight prior to the assay. The overnight grown cultures were diluted in saline to 0.5 McFarland turbidity, followed by 1:50 dilution in Mueller-Hinton broth (MHB) for inoculation to a final concentration of approximately 5×10^5 colony forming units/mL. Testing was performed on 96-well plates where the tested compounds were 2-fold serially diluted in MHB and incubated with equal volumes of bacterial inoculum at 37° C. for 18 h. […] Wells containing MHB with or without bacterial cells were used as positive or negative control, respectively.

The subject of series [2] is P. aeruginosa PAO200.
From the text: (§3) To our curiosity, we explored whether efflux can affect the activity of polymyxins. It is widely accepted that polymyxins disrupt Gram-negative bacterial membranes that result to intracellular component leakage and bacterial cell death. However, for this to occur requires the agent to reach the periplasmic space to interact and disrupt the inner membrane. Active efflux may potentially expel polymyxins out of the periplasm, effectively reducing its periplasmic and intracellular concentrations. To study the effect of efflux on polymyxins in Gram-negative pathogens, we used P. aeruginosa as they inherently overexpress efflux systems such as MexAB-OprM, MexCD-OprJ and MexXY-OprM. Moreover, antibiotic substrates for these efflux systems are mostly characterized. We evaluated and compared the activity of the dilipid polymyxins, colistin and PMBN against wild-type PAO1 and two efflux-deficient P. aeruginosa isogenic mutants (Table 5). The strain PAO200 lacks the MexAB-OprM efflux system while strain PAO750 lacks five clinically-relevant pumps (MexAB-OprM, MexCD-OprJ, MexEF-OprN, MexJK and MexXY) and outer membrane protein OpmH.
as §1, §2

Series [3] relates to P. aeruginosa PAO750. The following applies: P. aeruginosa PAO750, efflux-deficient strain that lacks five pumps and OpmH.
From the text: as §3, §1, §2

The subject of series [4] is P. aeruginosa PAO1. Also on record: MICDrug / MICDrug in combo / MIC of adjuvant in combo: unit not given beside the values. The following applies: for MICDrug: antibiotic alone. As to the method:
The potential of the dilipid polymyxins to serve as an adjuvant in combination with other antibiotics was evaluated against P. aeruginosa PAO1 strain (Tables 4 and 7-12). […] Checkerboard assays were performed with the dilipid polymyxins in combination with twenty-one clinically-used antibiotics. The panel included representatives from the β-lactam, carbapenem, tetracycline, aminoglycoside and fluoroquinolone antibiotic families. Other agents that are used to treat Gram-negative bacterial infection such as fosfomycin, trimethoprim and chloramphenicol were also included. […] Fractional inhibitory concentration (FIC) index was calculated for each combination to measure potential synergism between the two agents. FIC was obtained by dividing the MIC of antibiotic/adjuvant in combination by the MIC of antibiotic/adjuvant alone, while FIC index was calculated by the summation of FIC indices for the antibiotic and adjuvant. An FIC index of ≤0.5, 0.5<x≤4, or >4 denotes for synergistic, additive or antagonistic interaction, respectively. Initially, we assessed the adjuvant properties of PMBN against the panel of 21 antibiotics.
The assay was performed on 96-well plates as previously described. Briefly, the antibiotic at study was 2-fold serially diluted along the x-axis, while the adjuvant was 2-fold serially diluted along the y-axis to create a matrix in which each well consists of a combination of both at different concentrations. Overnight grown bacterial cultures were diluted in saline to 0.5 McFarland turbidity, followed by 1:50 dilution in MHB and inoculation on each well to a final concentration of approximately 5×10^5 colony forming units/mL. Wells containing only MHB with or without bacterial cells were used as positive or negative control, respectively. […] The fractional inhibitory concentration (FIC) of the antibiotic was calculated via dividing the MIC of antibiotic in the presence of adjuvant by the MIC of antibiotic alone. Similarly, the FIC of adjuvant was calculated via dividing the MIC of adjuvant in the presence of antibiotic by the MIC of adjuvant alone. The FIC index was obtained by the summation of both FIC values. The FIC index was then interpreted as synergistic, additive, or antagonistic for values of ≤0.5, 0.5<x<4, or ≥4, respectively.

Series [5] concerns pig erythrocytes. The following applies: red cells of pig, 1 h, 512.
Setting [6] is: antibiotic in combination with 1.
Where [7] appears, read: antibiotic in combination with 2.
The mark [8] stands for this setting: antibiotic in combination with 3.
Where [9] appears, read: antibiotic in combination with 4.
Setting [10] is: antibiotic in combination with 5.
The mark [11] stands for this setting: antibiotic in combination with PMBN.

In the case of `CC(C)C[C@@H]1NC(=O)[C@@H](Cc2ccccc2)NC(=O)[C@H](CCN)NC(=O)[C@@H](NC(=O)[C@H](CCN)NC(=O)[C@@H](N)[C@@H](C)O)CCNC(=O)[C@H]([C@@H](C)O)NC(=O)[C@H](CCN)NC(=O)[C@H](CCN)NC1=O` [PMBN, polymyxin B nonapeptide, reference compound] (H-T[Dab][Dab][Dab][dF]L[Dab][Dab]T; lactam 3-C (inferred)), the MIC in series [1] came to 128 µg/mL (≈ 133 µM); in series [2] (P. aeruginosa PAO200, efflux-deficient strain that lacks the MexAB-OprM pump), 2 µg/mL (≈ 2.08 µM); in series [3] it was 4 µg/mL (≈ 4.15 µM). In addition, the “fold difference in MIC against wild-type PAO1 and efflux-deficient PAO200” value in series [2] (PAO1 versus PAO200 (lacks MexAB-OprM)) stood at 64 fold. Besides, in series [4] (adjuvant alone, one value per checkerboard, in µg/mL), the “MIC of adjuvant alone (MIC1, MIC2, MIC3, MIC4, MIC5, MICPMBN)” value came to 128. Also, the Interpretation result in series [4] (combination with Aztreonam) was “Synergy (An FIC index of ≤0.5, 0.5<x≤4, or >4 denotes for synergistic, additive or antagonistic interaction, respectively)”; in series [4] (combination with Ceftazidime), “Synergy (An FIC index of ≤0.5, 0.5<x≤4, or >4 denotes for synergistic, additive or antagonistic interaction, respectively)”; in series [4] (combination with Chloramphenicol) it was “Synergy (An FIC index of ≤0.5, 0.5<x≤4, or >4 denotes for synergistic, additive or antagonistic interaction, respectively)”; in series [4] (combination with Ciprofloxacin), “Synergy (An FIC index of ≤0.5, 0.5<x≤4, or >4 denotes for synergistic, additive or antagonistic interaction, respectively)”; in series [4] (combination with Clindamycin) it was “Synergy (An FIC index of ≤0.5, 0.5<x≤4, or >4 denotes for synergistic, additive or antagonistic interaction, respectively)”; in series [4] (combination with Doripenem), “Synergy (An FIC index of ≤0.5, 0.5<x≤4, or >4 denotes for synergistic, additive or antagonistic interaction, respectively)”. The Interpretation entry in series [4] (combination with Doxycycline) is on record as “Synergy (An FIC index of ≤0.5, 0.5<x≤4, or >4 denotes for synergistic, additive or antagonistic interaction, respectively)”; in series [4] (combination with Fosfomycin), “Synergy (An FIC index of ≤0.5, 0.5<x≤4, or >4 denotes for synergistic, additive or antagonistic interaction, respectively)”; in series [4] (combination with Gentamicin), “Additive (An FIC index of ≤0.5, 0.5<x≤4, or >4 denotes for synergistic, additive or antagonistic interaction, respectively)”; in series [4] (combination with Linezolid) it was “Synergy (An FIC index of ≤0.5, 0.5<x≤4, or >4 denotes for synergistic, additive or antagonistic interaction, respectively)”; in series [4] (combination with Meropenem), “Synergy (An FIC index of ≤0.5, 0.5<x≤4, or >4 denotes for synergistic, additive or antagonistic interaction, respectively)”; in series [4] (combination with Minocycline) it was “Synergy (An FIC index of ≤0.5, 0.5<x≤4, or >4 denotes for synergistic, additive or antagonistic interaction, respectively)”. The Interpretation entry was “Synergy (An FIC index of ≤0.5, 0.5<x≤4, or >4 denotes for synergistic, additive or antagonistic interaction, respectively)” in series [4] (combination with Moxifloxacin); “Synergy (An FIC index of ≤0.5, 0.5<x≤4, or >4 denotes for synergistic, additive or antagonistic interaction, respectively)” in series [4] (combination with Novobiocin); “Synergy (An FIC index of ≤0.5, 0.5<x≤4, or >4 denotes for synergistic, additive or antagonistic interaction, respectively)” in series [4] (combination with Piperacillin); “Synergy (An FIC index of ≤0.5, 0.5<x≤4, or >4 denotes for synergistic, additive or antagonistic interaction, respectively)” in series [4] (combination with Pleuromutilin); “Synergy (An FIC index of ≤0.5, 0.5<x≤4, or >4 denotes for synergistic, additive or antagonistic interaction, respectively)” in series [4] (combination with Rifampicin); “Additive (An FIC index of ≤0.5, 0.5<x≤4, or >4 denotes for synergistic, additive or antagonistic interaction, respectively)” in series [4] (combination with Streptomycin). Also, the Interpretation result in series [4] (combination with Tobramycin) is listed as “Additive (An FIC index of ≤0.5, 0.5<x≤4, or >4 denotes for synergistic, additive or antagonistic interaction, respectively)”; in series [4] (combination with Trimethoprim) it was “Synergy (An FIC index of ≤0.5, 0.5<x≤4, or >4 denotes for synergistic, additive or antagonistic interaction, respectively)”; in series [4] (combination with Vancomycin), “Synergy (An FIC index of ≤0.5, 0.5<x≤4, or >4 denotes for synergistic, additive or antagonistic interaction, respectively)”. The “MIC of adjuvant in combo” value in series [4] (in combination with Aztreonam) is recorded as “(4)”; in series [4] (in combination with Ceftazidime), “(8)”; in series [4] (in combination with Chloramphenicol), “(1)”; in series [4] (in combination with Ciprofloxacin) it was “(32)”; in series [4] (in combination with Clindamycin), “(0.5)”; in series [4] (in combination with Doripenem) it was “(8)”. Further, the “MIC of adjuvant in combo” value is given as “(4)” in series [4] (in combination with Doxycycline); “(32)” in series [4] (in combination with Fosfomycin); “(64)” in series [4] (in combination with Gentamicin); “(4)” in series [4] (in combination with Linezolid); “(16)” in series [4] (in combination with Meropenem); “(8)” in series [4] (in combination with Minocycline). Moreover, the “MIC of adjuvant in combo” value in series [4] (in combination with Moxifloxacin) is listed as “(32)”; in series [4] (in combination with Novobiocin) it was “(4)”; in series [4] (in combination with Piperacillin), “(8)”; in series [4] (in combination with Pleuromutilin), “(0.5)”; in series [4] (in combination with Rifampicin), “(0.5)”; in series [4] (in combination with Streptomycin), “(0.5)”. The “MIC of adjuvant in combo” value was “(0.5)” in series [4] (in combination with Tobramycin), “(4)” in series [4] (in combination with Trimethoprim) and “(1)” in series [4] (in combination with Vancomycin). For the same compound, the “adjuvant activity (potentiation of the panel of 21 antibiotics)” value in series [4] (result in words) is given as “potentiated all antibiotics tested except for those belonging to the aminoglycoside family”. Further, the “% Hemolysis at 512 μg/mL of polymyxin” value in series [5] is 1.1 ± 0.1%.
Regarding `CN[C@H](CC(C)C)C(=O)N[C@H]1C(=O)N[C@@H](CC(N)=O)C(=O)N[C@H]2C(=O)N[C@H]3C(=O)N[C@H](C(=O)N[C@H](C(=O)O)c4cc(O)cc(O)c4-c4cc3ccc4O)[C@H](O)c3ccc(c(Cl)c3)Oc3cc2cc(c3O[C@@H]2O[C@H](CO)[C@@H](O)[C@H](O)[C@H]2O[C@H]2C[C@](C)(N)[C@H](O)[C@H](C)O2)Oc2ccc(cc2Cl)[C@H]1O` [Vancomycin, reference compound], the MICDrug in series [4] is reported as 256. The MICDrug in combo result was “(8)” in series [4] (setting [6]); “(2)” in series [4] (setting [7]); “(128)” in series [4] (setting [8]); “(64)” in series [4] (setting [9]); “(2)” in series [4] (setting [10]); “(4)” in series [4] (setting [11]).
For Gentamicin [reference compound], the MICDrug in series [4] was found to be 2. Moreover, the MICDrug in combo entry in series [4] (setting [6]) was “(2)”; in series [4] (setting [7]), “(4)”; in series [4] (setting [8]), “(2)”; in series [4] (setting [9]), “(2)”; in series [4] (setting [10]), “(4)”; in series [4] (setting [11]), “(2)”.

One may read the MIC as the smallest concentration in the dilution series that meets the test's criterion for growth inhibition.
